What was measured:
[1] = Antiandrogen activity against androgen receptor in androgen-dependent mouse SC3 cells assessed as inhibition of testosterone-induced cell proliferation by WST1 assay
[2] = Vitamin-D activity at VDR receptor in human HL60 cells assessed as induction of cell differentiation by NBT reduction assay

Row | SMILES | IC50 [1] [µM] | EC50 [2] [µM]
1 | CCC(CC)(c1ccc(OCC(=O)C(C)(C)C)c(C)c1)c1ccc(OC[C@@H](O)CO)c(C)c1 [(S)-1-(4-(3-(4-(2,3-dihydroxypropoxy)-3-methylphenyl)pentan-3-yl)-2-methylphenoxy)-3,3-dimethylbutan-2-one] | 0.032 | 
2 | CCC(CC)(c1ccc(OCC(=O)C(C)(C)C)c(C)c1)c1ccc(OCC(O)CO)c(C)c1 (stereo not given) [LG190178] |  | 0.09
3 | CCC(CC)(c1ccc(OCC(O)C(C)(C)Cc2ccc3ccccc3c2)c(C)c1)c1ccc(OC[C@@H](O)CO)c(C)c1 (stereo partly drawn) [(2S)-3-(4-(3-(4-(2-hydroxy-3,3-dimethyl-4-(naphthalen-2-yl)butoxy)-3-methylphenyl)pentan-3-yl)-2-methylphenoxy)propane-1,2-diol] | > 10 | > 30
4 | CCC(CC)(c1ccc(OC[C@@H](O)CO)c(C)c1)c1ccc(O[C@@H]2CN(C(=O)OCc3ccccc3)C[C@@H]2O)c(C)c1 [benzyl 3-(4-(3-(4-((S)-2,3-dihydroxypropoxy)-3-methylphenyl)pentan-3-yl)-2-methylphenoxy)-4-hydroxypyrrolidine-1-carboxylate] | > 30 | > 30
5 | CCC(CC)(c1ccc(OCC(O)C23CC4CC(CC(C4)C2)C3)c(C)c1)c1ccc(OC[C@@H](O)CO)c(C)c1 (stereo not given in full) | > 10 | 22
6 | CCC(CC)(c1ccc(OCC(=O)C(C)(C)C)c(C)c1)c1ccc(OC[C@H](O)CO)c(C)c1 [(R)-1-(4-(3-(4-(2,3-dihydroxypropoxy)-3-methylphenyl)pentan-3-yl)-2-methylphenoxy)-3,3-dimethylbutan-2-one] | 0.015 | 
7 | CCC(CC)(c1ccc(OCC(=O)C23CC4CC(CC(C4)C2)C3)c(C)c1)c1ccc(OC[C@@H](O)CO)c(C)c1 | > 30 | > 30
8 | CCC(CC)(c1ccc(OCC(O)C(C)(C)Cc2ccccc2)c(C)c1)c1ccc(OC[C@@H](O)CO)c(C)c1 (stereo partly drawn) [(2S)-3-(4-(3-(4-(2-hydroxy-3,3-dimethyl-4-phenylbutoxy)-3-methylphenyl)pentan-3-yl)-2-methylphenoxy)propane-1,2-diol] | 1.7 | 11
9 | CCC(CC)(c1ccc(OC[C@@H](O)CO)c(C)c1)c1ccc(OC[C@H](O)C(C)(C)C)c(C)c1 [(2S)-3-{4-[1-ethyl-1-(4-{[(2R)-2-hydroxy-3,3-dimethylbutyl]oxy}-3-methylphenyl)propyl]-2-methylphenoxy}propane-1,2-diol] | 0.003 | 
10 | CCC(CC)(c1ccc(OC[C@H](O)CO)c(C)c1)c1ccc(OC[C@@H](O)C(C)(C)C)c(C)c1 [(R)-3-(4-(3-(4-((S)-2-hydroxy-3,3-dimethylbutoxy)-3-methylphenyl)pentan-3-yl)-2-methylphenoxy)propane-1,2-diol] | 0.068 | 
11 | CCC(CC)(c1ccc(OC[C@H](O)CO)c(C)c1)c1ccc(OC[C@H](O)C(C)(C)C)c(C)c1 [(R)-3-(4-(3-(4-((R)-2-hydroxy-3,3-dimethylbutoxy)-3-methylphenyl)pentan-3-yl)-2-methylphenoxy)propane-1,2-diol] | 0.014 | 
12 | CCC(CC)(c1ccc(OC[C@@H](O)CO)c(C)c1)c1ccc(OC[C@@H](O)C(C)(C)C)c(C)c1 [(S)-3-(4-(3-(4-((S)-2-hydroxy-3,3-dimethylbutoxy)-3-methylphenyl)pentan-3-yl)-2-methylphenoxy)propane-1,2-diol] | 0.013 | 
13 | CCC(CC)(c1ccc(OC[C@@H](O)CO)c(C)c1)c1ccc(O[C@@H]2CN(Cc3ccccc3)C[C@@H]2O)c(C)c1 [(2S)-3-(4-(3-(4-(1-benzyl-4-hydroxypyrrolidin-3-yloxy)-3-methylphenyl)pentan-3-yl)-2-methylphenoxy)propane-1,2-diol] | > 10 | > 30

Results, then the compound that gave them:

Row | IC50 [1] [µM] | EC50 [2] [µM] | SMILES
14 | > 30 | > 30 | CCC(CC)(c1ccc(OCC(=O)C(C)(C)CCCCc2ccccc2)c(C)c1)c1ccc(OC[C@@H](O)CO)c(C)c1 [(S)-1-(4-(3-(4-(2,3-dihydroxypropoxy)-3-methylphenyl)pentan-3-yl)-2-methylphenoxy)-3,3-dimethyl-7-phenylheptan-2-one]
15 | > 10 | 21 | CCC(CC)(c1ccc(OCC(=O)C(C)(C)Cc2ccccc2)c(C)c1)c1ccc(OC[C@@H](O)CO)c(C)c1 [(S)-1-(4-(3-(4-(2,3-dihydroxypropoxy)-3-methylphenyl)pentan-3-yl)-2-methylphenoxy)-3,3-dimethyl-4-phenylbutan-2-one]
16 | > 30 | > 30 | CCC(CC)(c1ccc(OCC(=O)C(C)(C)Cc2ccc3ccccc3c2)c(C)c1)c1ccc(OC[C@@H](O)CO)c(C)c1 [(S)-1-(4-(3-(4-(2,3-dihydroxypropoxy)-3-methylphenyl)pentan-3-yl)-2-methylphenoxy)-3,3-dimethyl-4-(naphthalen-2-yl)butan-2-one]
17 | 0.13 | 3.6 | CCC(CC)(c1ccc(OCC(O)C(C)(C)CCCc2ccccc2)c(C)c1)c1ccc(OC[C@@H](O)CO)c(C)c1 (stereo partly drawn) [(2S)-3-(4-(3-(4-(2-hydroxy-3,3-dimethyl-6-phenylhexyloxy)-3-methylphenyl)pentan-3-yl)-2-methylphenoxy)propane-1,2-diol]
18 | > 10 | > 30 | CCC(CC)(c1ccc(OCC(O)C(C)(C)CCCCc2ccccc2)c(C)c1)c1ccc(OC[C@@H](O)CO)c(C)c1 (stereo partly drawn) [(2S)-3-(4-(3-(4-(2-hydroxy-3,3-dimethyl-7-phenylheptyloxy)-3-methylphenyl)pentan-3-yl)-2-methylphenoxy)propane-1,2-diol]
19 | 1.1 | 23 | CCC(CC)(c1ccc(OCC(=O)C(C)(C)CCc2ccccc2)c(C)c1)c1ccc(OC[C@@H](O)CO)c(C)c1 [(S)-1-(4-(3-(4-(2,3-dihydroxypropoxy)-3-methylphenyl)pentan-3-yl)-2-methylphenoxy)-3,3-dimethyl-5-phenylpentan-2-one]
20 | 0.88 | 7.1 | CCC(CC)(c1ccc(OCC(O)C(C)(C)CCc2ccccc2)c(C)c1)c1ccc(OC[C@@H](O)CO)c(C)c1 (stereo partly drawn) [(2S)-3-(4-(3-(4-(2-hydroxy-3,3-dimethyl-5-phenylpentyloxy)-3-methylphenyl)pentan-3-yl)-2-methylphenoxy)propane-1,2-diol]
21 | 9.8 | > 30 | CCC(CC)(c1ccc(OCC(=O)C(C)(C)CCCc2ccccc2)c(C)c1)c1ccc(OC[C@@H](O)CO)c(C)c1 [(S)-1-(4-(3-(4-(2,3-dihydroxypropoxy)-3-methylphenyl)pentan-3-yl)-2-methylphenoxy)-3,3-dimethyl-6-phenylhexan-2-one]

Source: BindingDB's records for doi:10.1016/j.bmcl.2010.09.011 (The University of Tokyo, 2010)
